Test results taken from patent US10722514B2 (FLX Bio, Inc., priority 2017, dated 2020).
Where a name gives a salt, the structure may show the parent alone.

target: T1, recombinant full-length USP7 (Homo sapiens, UniProt Q93009); assay: USP7-mediated ubiquitin-rhodamine cleavage assay; type: biochemical; details: recombinant full-length USP7 62 pM; ubiquitin-rhodamine 100 nM; 30-minute incubation with compound, 1 hour reaction at room temperature; read-out: Potency: USP7 IC50
T1 construct: A 25 μl reaction volume containing recombinant full-length USP7 (62 pM)
Summary of the method: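 Compounds are first incubated with 62 pM enzyme for 30 min at room temperature in pH 7.3 HEPES buffer containing TCEP and BSA. Cleavage of 100 nM ubiquitin-rhodamine proceeds for 1 h before an acid quench, and IC50 is derived from fluorescence.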

T1 sequence (Q93009 whole entry): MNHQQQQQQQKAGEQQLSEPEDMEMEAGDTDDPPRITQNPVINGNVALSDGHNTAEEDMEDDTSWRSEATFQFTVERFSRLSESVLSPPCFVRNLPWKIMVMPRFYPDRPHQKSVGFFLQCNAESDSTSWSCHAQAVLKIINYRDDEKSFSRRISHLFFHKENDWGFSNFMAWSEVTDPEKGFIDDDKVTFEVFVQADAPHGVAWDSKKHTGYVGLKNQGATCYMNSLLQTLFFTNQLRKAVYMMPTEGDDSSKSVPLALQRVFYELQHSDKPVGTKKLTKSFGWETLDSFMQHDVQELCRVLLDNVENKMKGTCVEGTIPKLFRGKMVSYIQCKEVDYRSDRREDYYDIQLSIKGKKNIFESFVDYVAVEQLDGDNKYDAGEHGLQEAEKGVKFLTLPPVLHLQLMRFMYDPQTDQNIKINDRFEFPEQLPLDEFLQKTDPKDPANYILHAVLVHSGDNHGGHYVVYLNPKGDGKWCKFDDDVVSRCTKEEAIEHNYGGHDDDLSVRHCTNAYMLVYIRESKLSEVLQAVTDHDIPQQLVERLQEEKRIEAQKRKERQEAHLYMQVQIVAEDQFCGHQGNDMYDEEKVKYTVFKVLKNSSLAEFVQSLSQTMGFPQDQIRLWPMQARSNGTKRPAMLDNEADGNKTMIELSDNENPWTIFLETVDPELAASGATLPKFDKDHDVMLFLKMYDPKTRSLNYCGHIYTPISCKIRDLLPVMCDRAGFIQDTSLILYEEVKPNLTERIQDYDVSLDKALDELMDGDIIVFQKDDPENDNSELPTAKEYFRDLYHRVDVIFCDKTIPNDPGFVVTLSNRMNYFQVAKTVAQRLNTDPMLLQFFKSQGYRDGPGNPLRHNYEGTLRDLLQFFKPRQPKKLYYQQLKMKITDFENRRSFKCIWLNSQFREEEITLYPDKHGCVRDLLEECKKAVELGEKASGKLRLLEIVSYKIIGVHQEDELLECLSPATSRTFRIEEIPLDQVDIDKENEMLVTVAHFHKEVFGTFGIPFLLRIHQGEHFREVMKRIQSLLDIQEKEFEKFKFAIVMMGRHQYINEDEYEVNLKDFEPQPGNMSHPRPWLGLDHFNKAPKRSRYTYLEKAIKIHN

IC50 [nM]	Structure (SMILES)
1000 to 10000	Cc1cc(Cl)cc(-c2ccnc3cc(CN4C(=O)CCC4=O)sc23)c1O[C@@H]1CNC(C(=O)N(C)C)C1 (stereo partly drawn) [Example 64, (4S)-4-(4-Chloro-2-(2-((2,5-dioxopyrrolidin-1-yl)methyl)thieno[3,2-b]pyridin-7-yl)-6-methylphenoxy)-N,N-dimethylpyrrolidine-2-carboxamide]
1000 to 10000	Cc1cc(Cl)cc(-c2ccnc3cc(CN4CCCCS4(=O)=O)sc23)c1O[C@@H]1CNC[C@@H]1F [Example 2, 2-((7-(5-Chloro-2-(((3R,4S)-4-fluoropyrrolidin-3-yl)oxy)-3-methylphenyl)thieno[3,2-b]pyridin-2-yl)methyl)-1,2-thiazinane 1,1-dioxide]
< 1000	Cc1cc(Cl)cc(-c2ccnc3cc(CN4C(=O)CCN(C)C4=O)sc23)c1O[C@H]1CCCNC1 [Example 162, (S)-3-((7-(5-Chloro-3-methyl-2-(piperidin-3-yloxy)phenyl)thieno[3,2-b]pyridin-2-yl)methyl)-1-methyldihydropyrimidine-2,4(1H,3H)-dione]
< 1000	Cc1cc(Cl)cc(-c2ccnc3cc(Cn4c(=O)ccn(C)c4=O)sc23)c1O[C@@H]1CNC[C@@H]1F [Example 151, 3-((7-(5-Chloro-2-(((3R,4S)-4-fluoropyrrolidin-3-yl)oxy)-3-methylphenyl)thieno[3,2-b]pyridin-2-yl)methyl)-1-methylpyrimidine-2,4(1H,3H)-dione]
< 1000	Cc1cc(Cl)cc(-c2ccnc3cc(CN4C(=O)SC(C)(C)C4=O)sc23)c1O[C@H]1CCCNC1 [Example 295, 3-[[7-[5-chloro-3-methyl-2-[[(3S)-3-piperidyl]oxy]phenyl]thieno[3,2-b]pyridin-2-yl]methyl]-5,5-dimethyl-thiazolidine-2,4-dione; 2,2,2-trifluoroacetic acid]
< 1000	CC[C@@H](c1cc2nccc(-c3cc(Cl)cc(C)c3O[C@H]3CCCNC3)c2s1)N1C(=O)CCC1=O [Example 257, 1-((S)-1-(7-(5-Chloro-3-methyl-2-(((S)-piperidin-3-yl)oxy)phenyl)thieno[3,2-b]pyridin-2-yl)propyl)pyrrolidine-2,5-dione]
< 1000	Cc1cc(Cl)cc(-c2ncnc3cc(Cn4c(=O)ccn(CC(F)(F)F)c4=O)sc23)c1O[C@@H]1CCNC[C@@H]1F [Example 170, 3-((4-(5-Chloro-2-(((3S,4R)-3-fluoropiperidin-4-yl)oxy)-3-methylphenyl)thieno[3,2-d]pyrimidin-6-yl)methyl)-1-(2,2,2-trifluoroethyl)pyrimidine-2,4(1H,3H)-dione]
10000 to 30000	Cc1cc(Cl)cc(-c2ccnc3cc(CO)sc23)c1OC[C@@H]1CCN1 [Example 18, (S)-(7-(2-(Azetidin-2-ylmethoxy)-5-chloro-3-methylphenyl)thieno[3,2-b]pyridin-2-yl)methanol]
10000 to 30000	Cc1cc(Cl)cc(-c2ccnc3cc(Cn4c(C(F)(F)F)cccc4=O)sc23)c1OC1CCNCC1 [Example 227, 1-((7-(5-Chloro-3-methyl-2-(piperidin-4-yloxy)phenyl)thieno[3,2-b]pyridin-2-yl)methyl)-6-(trifluoromethyl)pyridin-2(1H)-one]
1000 to 10000	CC[C@@H](c1cc2nccc(-c3cc(Cl)cc(C)c3OC3CCNCC3)c2s1)N1C(=O)CCC1=O [Example 256, (S)-1-(1-(7-(5-Chloro-3-methyl-2-(piperidin-4-yloxy)phenyl)thieno[3,2-b]pyridin-2-yl)propyl)pyrrolidine-2,5-dione]
< 1000	Cc1cc(Cl)cc(-c2ccnc3cc(CN4C(=O)C(C)C(C)C4=O)sc23)c1O[C@H]1CCCNC1 (stereo partly drawn) [Example 296, 1-[[7-[5-chloro-3-methyl-2-[[(3S)-3-piperidyl]oxy]phenyl]thieno[3,2-b]pyridin-2-yl]methyl]-3,4-dimethyl-pyrrolidine-2,5-dione; 2,2,2-trifluoroacetic acid]
< 1000	Cc1cc(Cl)cc(-c2ccnc3cc(CN4C(=O)CCC4=O)sc23)c1OC1CNCC1(C)C (stereo not drawn) [Example 345, 1-[[7-[5-chloro-2-(4,4-dimethylpyrrolidin-3-yl)oxy-3-methyl-phenyl]thieno[3,2-b]pyridin-2-yl]methyl]pyrrolidine-2,5-dione]
< 1000	Cc1cc(Cl)cc(-c2ccnc3cc([C@H](C)N4C(=O)C5C(C4=O)C5(C)C)sc23)c1OC1CCC(C)NC1 (stereo partly drawn) [Example 396, 3-[(1S)-1-[7-[5-chloro-3-methyl-2-[(6-methyl-3-piperidyl)oxy]phenyl]thieno[3,2-b]pyridin-2-yl]ethyl]-6,6-dimethyl-3-azabicyclo[3.1.0]hexane-2,4-dione; 2,2,2-trifluoroacetic acid]
< 1000	Cc1cc(Cl)cc(-c2ccnc3cc(CN4C(=O)C5CC5C4=O)sc23)c1O[C@@H]1CCN(C)C[C@@H]1C (stereo partly drawn) [Example 326, 3-[[7-[5-chloro-2-[[(3S,4R)-1,3-dimethyl-4-piperidyl]oxy]-3-methyl-phenyl]thieno[3,2-b]pyridin-2-yl]methyl]-3-azabicyclo[3.1.0]hexane-2,4-dione]
< 1000	Cc1cc(Cl)cc(-c2ccnc3cc(CN4C(=O)CC5(CCCC5)CC4=O)sc23)c1OC1CCNCC1 [Example 236, 8-((7-(5-Chloro-3-methyl-2-(piperidin-4-yloxy)phenyl)thieno[3,2-b]pyridin-2-yl)methyl)-8-azaspiro[4.5]decane-7,9-dione]
< 1000	Cc1cc(Cl)cc(-c2ccnc3cc(CN4C(=O)SC(C)(C)C4=O)sc23)c1O[C@@H]1CNC[C@@H]1F [Example 145, 3-((7-(5-Chloro-2-(((3R,4S)-4-fluoropyrrolidin-3-yl)oxy)-3-methylphenyl)thieno[3,2-b]pyridin-2-yl)methyl)-5,5-dimethylthiazolidine-2,4-dione]
10000 to 30000	Cc1cc(C#N)cc(-c2ncnc3ccsc23)c1OCC1(C)CNC1 [Example 24, 3-Methyl-4-((3-methylazetidin-3-yl)methoxy)-5-(thieno[3,2-d]pyrimidin-4-yl)benzonitrile]

same assay, conditions: recombinant full-length USP7 62 pM; ubiquitin-rhodamine 100 nM; 30-minute pre-incubation, 1 hour reaction at room temperature; read-out: Potency (USP7 IC50)

IC50 [nM]	Structure (SMILES)
< 1000	Cc1cc(Cl)cc(-c2ccnc3cc(CN4C(=O)CCC4=O)sc23)c1OC1CCCC(N)C1 (stereo not drawn) [Example 427, 1-[[7-[2-(3-aminocyclohexoxy)-5-chloro-3-methyl-phenyl]thieno[3,2-b]pyridin-2-yl]methyl]pyrrolidine-2,5-dione; 2,2,2-trifluoroacetic acid]
< 1000	Cc1cc(Cl)cc(-c2ccnc3cc(Cn4c(=O)ccn(C)c4=O)sc23)c1OC1CC2CC1CN2 (stereo not drawn) [Example 476, 3-[[7-[2-(2-azabicyclo[2.2.1]heptan-5-yloxy)-5-chloro-3-methyl-phenyl]thieno[3,2-b]pyridin-2-yl]methyl]-1-methyl-pyrimidine-2,4-dione; 2,2,2-trifluoroacetic acid]
< 1000	Cc1cc(Cl)cc(-c2ccnc3cc(Cn4c(=O)ccn(C)c4=O)sc23)c1OC1CC2CC1N(C(C)C)C2 (stereo not drawn) [Example 474, 3-[[7-[5-chloro-2-[(3-isopropyl-3-azabicyclo[2.2.1]heptan-5-yl)oxy]-3-methyl-phenyl]thieno[3,2-b]pyridin-2-yl]methyl]-1-methyl-pyrimidine-2,4-dione]
< 1000	Cc1cc(Cl)cc(-c2ncnc3cc(Cn4c(=O)ccn(CC(F)(F)F)c4=O)sc23)c1OC1CCNCC1 [Example 527, 3-[[4-[5-chloro-3-methyl-2-(4-piperidyloxy)phenyl]thieno[3,2-d]pyrimidin-6-yl]methyl]-1-(2,2,2-trifluoroethyl)pyrimidine-2,4-dione]
< 1000	Cc1cc(Cl)cc(-c2ccnc3cc(Cn4c(=O)ccn(CC(F)(F)F)c4=O)sc23)c1O[C@@H]1CN(C2COC2)C[C@@H]1C [Example 606, 3-[[7-[5-chloro-3-methyl-2-[(3S,4S)-4-methyl-1-(oxetan-3-yl)pyrrolidin-3-yl]oxy-phenyl]thieno[3,2-b]pyridin-2-yl]methyl]-1-(2,2,2-trifluoroethyl)pyrimidine-2,4-dione]
< 1000	Cc1cc(Cl)cc(-c2ccnc3cc(COc4nc(=O)ccn4CC(F)(F)F)sc23)c1O[C@H]1CNCC[C@H]1C [Example 615, 2-[[7-[5-chloro-3-methyl-2-[[(3R,4R)-4-methyl-3-piperidyl]oxy]phenyl]thieno[3,2-b]pyridin-2-yl]methoxy]-1-(2,2,2-trifluoroethyl)pyrimidin-4-one]
< 1000	CCN1CC[C@H](Oc2c(C)cc(Cl)cc2-c2ccnc3cc(Cn4c(=O)ccn(C)c4=O)sc23)CC1(C)C [Example 491, 3-[[7-[5-chloro-2-[[(4S)-1-ethyl-2,2-dimethyl-4-piperidyl]oxy]-3-methyl-phenyl]thieno[3,2-b]pyridin-2-yl]methyl]-1-methyl-pyrimidine-2,4-dione; 2,2,2-trifluoroacetic acid]
< 1000	Cc1cc(Cl)cc(-c2ccnc3cc(CN4C(=O)C[C@H](O)C4=O)sc23)c1OC1CCNCC1 [Example 417, (3S)-1-[[7-[5-chloro-3-methyl-2-(4-piperidyloxy)phenyl]thieno[3,2-b]pyridin-2-yl]methyl]-3-hydroxy-pyrrolidine-2,5-dione dihydrochloride]
< 1000	Cc1cc(Cl)cc(-c2ccnc3cc(Cn4c(=O)ccn(CC(F)(F)F)c4=O)sc23)c1OC1CN2CCC1C2 [Example 589, 3-[[7-[2-[[(1S,3S,4R)-1-azabicyclo[2.2.1]heptan-3-yl]oxy]-5-chloro-3-methyl-phenyl]thieno[3,2-b]pyridin-2-yl]methyl]-1-(2,2,2-trifluoroethyl)pyrimidine-2,4-dione]
< 1000	Cc1cc(Cl)cc(-c2ncnc3cc(Cn4c(=O)ccn(C)c4=O)sc23)c1O[C@H]1CCNC[C@@H]1F [Example 560, 3-[[4-[5-chloro-2-[[(3S,4S)-3-fluoro-4-piperidyl]oxy]-3-methyl-phenyl]thieno[3,2-d]pyrimidin-6-yl]methyl]-1-methyl-pyrimidine-2,4-dione]
